US10300155B2, “Alpha-synuclein ligands” (Washington University, priority 2015, dated 2019)
Several values for one entry are separate records, joined by “and”; a condition that tells them apart may be missing. Identical values can stand only once. Like-named read-outs stand apart in the source and are kept apart here.

Molecular target: T1, α-synuclein fibrils (Homo sapiens, UniProt P37840)
T1 construct: made in house; host or cells: E. coli BL21(DE3)RIL
Test: ThT competitive assay for α-synuclein fibrils (Table 1)
Type: binding
Settings: for EC50: α-synuclein fibrils
Procedure: Upon binding to amyloid fibrils, a peak at approximately 440 nm becomes dominant with the fluorescent emission maximum shifted to 480 nm. This is accompanied by a strong enhancement of the fluorescence.
α-Synuclein recombinant protein was produced in E. coli. […] Freshly transformed BL21 colonies were inoculated into 2 L baffled flasks containing 250 mL sterilized TB (1.2% bactotryptone, 2.4% yeast extract, 0.4% glycerol, 0.17 M KH2PO4, 0.72 M K2HPO4) with 50 μg/ml ampicillin, and incubated overnight at 37° C. with shaking.
To determine the concentration of fibrils, the reaction mixture (100 μL) was centrifuged at 18,000×g for 10 minutes to separate fibrils from monomer. The α-synuclein monomer and other soluble proteins in the supernatant were removed, and the fibril pellet was resuspended in 100 μL solution of Tris-HCl (20 mM) and NaCl (100 mM). This fibril suspension was used in a bicinchoninic acid (BCA) protein assay along with a bovine serum albumin (BSA) standard curve to determine the concentration of fibrils in the 72 hour fibril reaction mixture.
To prepare the fibrils for performing binding assays, the fibril reaction mixture prepared above was centrifuged at 18,000×g for 10 minutes.
Once the ThT-α-synuclein saturation binding curve and dissociation constant (Kd) were determined the competitive assay for determining the binding affinity of various test compounds was conducted. […] The mixture was incubated at room temperature for 60 minutes on the shaking plate. The fluorescent intensity for each cell was measured by the fluorescence reader at λex and λem. The Ki value for each compound was calculated by the corresponding inhibition curve.
The Ki values were derived from the EC50 values using the Cheng-Prusoff equation: Ki=EC50/(1+[radioligand]/Kd). See FIGS. 17.1-31.2 for the inhibition curves for each compound in the ThioT competitive binding assay.

[1] = individual determinations, read-out: Ki (nM) α-syn
[2] = average, read-out: Ki (nM) α-syn (avg)
[3] = average, read-out: EC50 (nM) EC50 (avg)
[4] = individual determinations, read-out: EC50 (nM) EC50

COC(=O)c1ccc(/C=C/C=C/c2ccncc2)cc1 [TZ-20-111]
Ki [1]: 56 nM

COc1ccccc1NC(=O)c1ccc(/C=C/c2ccncc2)cc1 [TZ-20-81]
Ki [2]: 150 nM
Ki [1]: 150 nM

C(=C\c1ccccc1)/CN1c2ccccc2Sc2ccccc21 [TZ-19-126]
Ki [2]: 3880 nM
Ki [1]: 3880 nM

COc1ccc2ccc(/C=C/c3ccncc3)nc2c1 [TZ-23-02]
Ki [2]: 71.8 nM
Ki [1]: 71.8 nM

COc1ccc2nc(/C=C/c3cnccn3)ccc2c1 [TZ-23-12]
Ki [2]: 36.4 nM
Ki [1]: 36.4 nM

Fc1ccc(/C=C/c2ccncc2)cc1 [TZ-20-73]
Ki [2]: 432 nM
Ki [1]: 432 nM

COc1ccc(/C=C/c2cnccn2)cc1OC [TZ-22-37-1]
Ki [2]: 213 nM
Ki [1]: 213 nM

COc1ccc2c(c1)NC(=O)/C(=C/C=C/c1ccc([N+](=O)[O-])cc1)O2 [TZ-19-122]
Ki [2]: 598 nM
Ki [1]: 598 nM

COC(=O)c1ccc2oc(-c3ccc(-c4ccc(F)nc4)c(C(F)(F)F)c3)nc2c1 [TZ-31-125]
Ki [2]: 1560 nM
Ki [1]: 1560 nM
EC50 [3]: 4090 nM
EC50 [4]: 4090 nM

COc1ccc2nc(/C=C/c3ccccc3)ccc2c1 [TZ-19-144]
Ki [2]: 196 nM
Ki [1]: 196 nM

O=[N+]([O-])c1ccc(/C=C/c2ccncc2)cc1 [TZ-20-59]
Ki [2]: 52.8 nM
Ki [1]: 52.8 nM

COc1ccc(/C=C/c2ccncn2)cc1 [TZ-22-19-1]
Ki [2]: 154 nM
Ki [1]: 154 nM

O=C(Nc1ccc(Br)cc1)c1ccc(/C=C/c2ccncc2)cc1 [TZ-23-52]
Ki [2]: 10.4 nM

COc1ccc2nc(/C=C/c3cccs3)ccc2c1 [TZ-36-50]
Ki [2]: 403 nM
Ki [1]: 403 nM
EC50 [3]: 1050 nM
EC50 [4]: 1050 nM

O=[N+]([O-])c1ccc2nc(/C=C/c3cnccn3)ccc2c1 [TZ-36-20]
Ki [2]: 926 nM
Ki [1]: 926 nM
EC50 [3]: 2420 nM
EC50 [4]: 2420 nM

COC(=O)C(Cc1ccc(O)cc1)NC(=O)c1ccc(/C=C/c2ccncc2)cc1 (stereo not shown) [TZ-20-77]
Ki [2]: 523 nM
Ki [1]: 523 nM

COc1ccc(C(=O)N2CCN(C(=O)c3ccc(/C=C/c4ccncc4)cc3)CC2)cc1 [TZ-20-45]
Ki [2]: 181 nM
Ki [1]: 181 nM

Fc1ccc(-c2ccc(-c3nc4cc(Br)ccc4o3)cc2C(F)(F)F)cn1 [TZ-31-108]
Ki [2]: 1540 nM
Ki [1]: 1540 nM
EC50 [3]: 4030 nM
EC50 [4]: 4030 nM

COc1ccc(/C=C/c2ncccn2)cc1 [TZ-22-31-1]
Ki [2]: 2770 nM
Ki [1]: 2770 nM

COc1ccc(/C=C/c2cnccn2)cc1 [TZ-22-1-2]
Ki [2]: 31.9 nM
Ki [1]: 31.9 nM

CN(C)c1ccc(/C=C/CN2c3ccccc3Oc3ccccc32)cc1 [TZ-19-138]
Ki [2]: 3090 nM
Ki [1]: 3090 nM

CNc1ccc(/C=C/c2ccncc2)cc1 [TZ-20-97]
Ki [1]: 33.9 nM

Ic1ccc(/C=C/c2ccoc2)cc1 [TZ-34-86]
Ki [2]: 134 nM
Ki [1]: 117 nM and 152 nM
EC50 [3]: 352 nM
EC50 [4]: 306 nM and 398 nM

COc1ccc(/C=C/c2ccc(C(=O)NCCF)s2)cc1 [TZ-34-94]
Ki [2]: 160 nM
Ki [1]: 223 nM and 61 nM and 197 nM
EC50 [3]: 419 nM
EC50 [4]: 583 nM and 160 nM and 514 nM

COc1ccc(/C=C/c2ccc(C=O)s2)cc1 [TZ-34-41]
Ki [2]: 148 nM
Ki [1]: 148 nM
EC50 [3]: 387 nM
EC50 [4]: 387 nM

COc1ccc2nc(/C=C/c3cccnc3Cl)ccc2c1 [TZ-36-40]
Ki [2]: 62 nM
Ki [1]: 62 nM
EC50 [3]: 163 nM
EC50 [4]: 163 nM

COc1ccc2nc(/C=C/c3ccnc(F)c3)ccc2c1 [TZ-36-26-2T]
Ki [2]: 434 nM
EC50 [3]: 1140 nM

COc1ccc2nc(/C=C/c3ccsc3)ccc2c1 [TZ-36-30]
Ki [2]: 122 nM
Ki [1]: 122 nM
EC50 [3]: 320 nM
EC50 [4]: 320 nM

COc1ccc2nc(/C=C/c3ccco3)ccc2c1 [TZ-36-52]
Ki [2]: 316 nM
Ki [1]: 316 nM
EC50 [3]: 827 nM
EC50 [4]: 827 nM

COc1ccc2nc(/C=C/c3ccncc3)ccc2c1 [TZ-19-158]
Ki [2]: 29.1 nM
Ki [1]: 29.1 nM

CN(C)c1ccc(/C=C/c2cnccn2)cc1 [TZ-22-35-1]
Ki [2]: 698 nM
Ki [1]: 698 nM

COc1ccc2nc(/C=C/c3ccncc3Cl)ccc2c1 [TZ-36-48]
Ki [2]: 414 nM
Ki [1]: 414 nM
EC50 [3]: 1080 nM
EC50 [4]: 1080 nM

COc1ccc(/C=C/c2cccnn2)cc1 [TZ-22-23-1]
Ki [2]: 1140 nM
Ki [1]: 1140 nM

Fc1ccc(/C=C/c2cccs2)cc1 [TZ-34-60]
Ki [2]: 1000 nM
Ki [1]: 1000 nM
EC50 [3]: 1000 nM
EC50 [4]: 1000 nM

COc1ccc2nc(/C=C/c3ccncc3Br)ccc2c1 [TZ-36-46]
Ki [2]: 168 nM
Ki [1]: 140 nM and 195 nM
EC50 [3]: 437 nM
EC50 [4]: 365 nM and 509 nM

COc1ccc2nc(/C=C/c3cccnc3C)ccc2c1 [TZ-36-44]
Ki [2]: 289 nM
Ki [1]: 289 nM
EC50 [3]: 755 nM
EC50 [4]: 755 nM

CN(C)c1ccc(/C=C/C=C/c2cccs2)cc1 [TZ-34-97]
Ki [2]: 69 nM
Ki [1]: 69 nM
EC50 [3]: 180 nM
EC50 [4]: 180 nM

COc1cccc2nc(/C=C/c3ccncc3)ccc12 [TZ-23-06]
Ki [2]: 96.3 nM
Ki [1]: 96.3 nM

COc1ccc2c(c1)NC(=O)/C(=C/C=C/c1ccc([N+](=O)[O-])cc1)S2 [TZ-19-124]
Ki [2]: 254 nM
Ki [1]: 254 nM

CC(C)OC(=O)c1ccc(/C=C/c2ccncc2)cc1 [TZ-20-65]
Ki [2]: 75.6 nM
Ki [1]: 75.6 nM

COc1ccc(C2CCN(C(=O)COC(=O)c3ccc(C(C)(C)C)cc3)CC2)cc1 [TZ-20-23]
Ki [2]: 109 nM
Ki [1]: 109 nM

COc1cc(/C=C/c2cnccn2)nc2ccccc12 [TZ-23-20]
Ki [2]: 3030 nM
Ki [1]: 3030 nM

Ic1ccc(/C=C/c2ccsc2)cc1 [TZ-34-64]
Ki [2]: 115 nM
Ki [1]: 115 nM
EC50 [3]: 300 nM
EC50 [4]: 300 nM

COc1ccc(/C=C/c2ccc(CO)s2)cc1 [TZ-34-46]
Ki [2]: 108 nM
Ki [1]: 105 nM and 110 nM
EC50 [3]: 281 nM
EC50 [4]: 275 nM and 287 nM

C(=C\c1cccs1)/c1ccncc1 [TZ-34-100]
Ki [2]: 604 nM
Ki [1]: 604 nM
EC50 [3]: 1580 nM
EC50 [4]: 1580 nM

O=C(OCCF)c1ccc(/C=C/c2ccncc2)cc1 [TZ-20-63]
Ki [2]: 96 nM
Ki [1]: 96 nM

COc1ccc(/C=C/c2ccc(-c3cccs3)s2)cc1 [TZ-34-40]
Ki [2]: 450 nM
Ki [1]: 500 nM and 400 nM
EC50 [3]: 1180 nM
EC50 [4]: 1310 nM and 1050 nM

Brc1ccc(/C=C/c2ccsc2)cc1 [TZ-34-58]
Ki [2]: 319 nM
Ki [1]: 319 nM
EC50 [3]: 834 nM
EC50 [4]: 834 nM

COc1ccc(C(=O)C2CCN(C(=O)COC(=O)c3ccc(C(C)(C)C)cc3)CC2)cc1 [TZ-20-11]
Ki [2]: 5090 nM
Ki [1]: 5090 nM

Fc1ccc(/C=C/c2ccsc2)cc1 [TZ-34-59]
Ki [2]: 860 nM
Ki [1]: 860 nM
EC50 [3]: 2250 nM
EC50 [4]: 2250 nM

COc1ccc(NC(=O)c2ccc(/C=C/c3ccncc3)cc2)cc1 [TZ-20-83]
Ki [1]: 19.1 nM

COc1ccc2ccc(/C=C/c3cnccn3)nc2c1 [TZ-23-16]
Ki [2]: 3180 nM
Ki [1]: 3180 nM

Fc1ccc2nc(/C=C/c3cnccn3)ccc2c1 [TZ-36-22]
Ki [2]: 109 nM
Ki [1]: 109 nM
EC50 [3]: 286 nM
EC50 [4]: 286 nM

COc1ccc2nc(/C=C/c3ccc(Cl)nc3)ccc2c1 [TZ-36-38]
Ki [2]: 39 nM
Ki [1]: 31 nM and 47 nM
EC50 [3]: 101 nM
EC50 [4]: 80 nM and 122 nM

OCc1ccc2oc(-c3ccc(-c4ccc(F)nc4)c(C(F)(F)F)c3)nc2c1 [TZ-31-123]
Ki [2]: 31400 nM
Ki [1]: 31400 nM
EC50 [3]: 82000 nM
EC50 [4]: 82000 nM

Ic1ccc(/C=C/c2cccs2)cc1 [TZ-34-63]
Ki [2]: 80 nM
Ki [1]: 80 nM
EC50 [3]: 208 nM
EC50 [4]: 208 nM

COc1ccc(C2CCN(C(=O)c3ccc(/C=C/c4ccncc4)cc3)CC2)cc1 [TZ-20-39]
Ki [2]: 2460 nM
Ki [1]: 2460 nM

COc1cccc2nc(/C=C/c3ccccc3)ccc12 [TZ-19-152]
Ki [2]: 532 nM
Ki [1]: 532 nM

COc1cccc(/C=C/c2cnccn2)c1 [TZ-22-49-1]
Ki [2]: 117 nM
Ki [1]: 117 nM

COc1ccc(/C=C/c2cc3ccccc3s2)cc1 [TZ-34-87]
Ki [2]: 884 nM
Ki [1]: 884 nM
EC50 [3]: 2310 nM
EC50 [4]: 2310 nM

CNC(=O)c1ccc(/C=C/c2ccncc2)cc1 [TZ-20-69]
Ki [2]: 85.6 nM
Ki [1]: 85.6 nM

COc1ccc(/C=C/c2cc(Br)cs2)cc1 [TZ-34-39]
Ki [2]: 256 nM
Ki [1]: 233 nM and 278 nM
EC50 [3]: 668 nM
EC50 [4]: 609 nM and 727 nM

O=C(Nc1ccc(I)cc1)c1ccc(/C=C/c2ccncc2)cc1 [TZ-23-56]
Ki [2]: 19.8 nM
Ki [1]: 19.8 nM

Brc1ccc(/C=C/c2cccs2)cc1 [TZ-34-55]
Ki [2]: 198 nM
Ki [1]: 198 nM
EC50 [3]: 519 nM
EC50 [4]: 519 nM

COc1ccc2ccc(/C=C/c3ccccc3)nc2c1 [TZ-19-146]
Ki [2]: 666 nM
Ki [1]: 666 nM

O=C(NCCF)c1ccc(/C=C/c2ccncc2)cc1 [TZ-20-79]
Ki [2]: 115 nM
Ki [1]: 115 nM
